# Laboratory results reported in patent US6358995B1, “Carboxylic acid derivatives having fused rings” (Eisai Co., Ltd., priority 1996, dated 2002).
# Biological target: T1, RAR-α (Homo sapiens, UniProt P10276)
# T1 construct: expressed in transfected cells; host or cells: COS-1 (African green monkey kidney cells), transient lipofection
# T1 sequence (P10276 1-462): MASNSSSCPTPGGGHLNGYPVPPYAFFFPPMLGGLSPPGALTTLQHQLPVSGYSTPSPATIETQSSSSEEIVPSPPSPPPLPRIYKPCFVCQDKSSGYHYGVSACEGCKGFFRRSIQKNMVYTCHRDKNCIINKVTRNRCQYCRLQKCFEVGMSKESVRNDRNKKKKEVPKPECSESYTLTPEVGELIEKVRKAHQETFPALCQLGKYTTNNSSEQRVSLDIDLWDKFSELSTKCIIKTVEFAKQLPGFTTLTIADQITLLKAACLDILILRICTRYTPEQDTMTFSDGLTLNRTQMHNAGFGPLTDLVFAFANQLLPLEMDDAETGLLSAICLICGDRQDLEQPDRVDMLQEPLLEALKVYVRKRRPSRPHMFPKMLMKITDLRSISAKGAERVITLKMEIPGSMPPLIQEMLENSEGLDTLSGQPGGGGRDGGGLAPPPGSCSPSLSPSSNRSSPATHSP
# Experiment: Transcription accelerating activity through RARs (PLAP reporter in COS-1 cells)
# Assay type: cell-based
# Conditions: relative to ED30 of all-trans retinoic acid = 1, ED30 = concentration giving 30% of activity induced by 1 μM all-trans retinoic acid
# From the text: (§1) Measurement of the Activities of Accelerating Trans-cription Through RARs
# (§2) Human RAR Expression Vectors and secretory alkaline phosphatase (PLAP) gene vectors (PLAP vectors) containing in a state integrated into the upstream a competent sequence whose expression is […] through binding with RAR depending on a ligand were temporarily transferred into COS-1 (African green monkey kidney cells), and the PLAP which had been produced depending on a ligand and secreted into a culture medium was analyzed by the chemiluminescence method to determine the transcription-accelerating activity of each compound. Further, the selectivity of each compound among RARs was determined by comparing the transcription accelerating activities of the compound for the receptors with each other.
# (§3) On a 60-mm culture dish were scattered 2.5×10^4 COS-1 cells. Four days after, human RAR α, β and γ expression vectors and PLAP vectors were transferred into the cells each in an amount of 4 μg by the lipofection method. Another day after, the resulting cells were recovered, and put on a 96-well culture plate in an amount of 2×10^4 per unit well. Four hours after, the cells were put on a medium containing charcoal-treated fetal bovine serum, followed by the addition of a dilution of all-trans retinoic acid or a test compound. After the lapse of 36 hours, the supernatant was recovered and the resulting samples were treated at 65° C. for 10 minutes to eliminate the non-specific activity. 15 μl of each sample was mixed with 60 μl of a 28 mM sodium carbonate buffer(pH10), followed by the addition of 75 μl of Smilight (trade name, a product of Sumitomo Metal Industries, Ltd., substrate for chemiluminescence). The resulting mixture was reacted at 37° C. for 30 minutes and the intensity of luminescence was determined. The compounds which will be described below induced the transcription activities of RARs dependently on the concentration.
row,Structure (SMILES),Transcription accelerating activity Relative ED30 RAR-α
1,"COc1ccc2ccc(-c3ccc(-c4ccc(C(=O)O)cc4)[nH]3)cc2c1C [Example 4, 4-{2-[5-(7-Methoxy-8-methylnaphthalen-2-yl)pyrrolyl]}benzoic acid]",49
2,"Cc1cccc2ccc(-c3ccc(-c4ccc(C(=O)O)cc4)[nH]3)cc12 [Example 6, 4-{2-[5-(8-Methylnaphthalen-2-yl)pyrrolyl]}benzoic acid]",0.9
3,"CCc1cccc2ccc(-c3ccc(-c4ccc(C(=O)O)cc4)[nH]3)cc12 [Example 7, 4-{2-[5-(8-Ethylnaphthalen-2-yl)pyrrolyl]}benzoic acid]",0.9
4,"Cc1ccc(C)c2oc(-c3ccc(-c4ccc(C(=O)O)cc4)[nH]3)cc12 [Example 13, 4-{2-[5-(4,7-Dimethylbenzofuran-2-yl)pyrrolyl]}benzoic acid]",0.4
5,"O=C(O)c1ccc(-c2ccc(-c3cc4c(Cl)ccc(Cl)c4o3)[nH]2)cc1 [Example 14, 4-{2-[5-(4,7-Dichlorobenzofuran-2-yl)pyrrolyl]}benzoic acid]",1.0
6,"O=C(O)c1ccc(-c2ccc(-c3cc4cccc(Cl)c4o3)[nH]2)cc1 [Example 15, 4-{2-[5-(7-Chlorobenzofuran-2-yl)pyrrolyl]}benzoic acid]",3.1
7,"CCCc1cccc2cc(-c3ccc(-c4ccc(C(=O)O)cc4)[nH]3)oc12 [Example 16, 4-{2-[5-(7-n-Propylbenzofuran-2-yl)pyrrolyl]}benzoic acid]",1.0
8,"CCc1ccc(C)c2cc(-c3ccc(-c4ccc(C(=O)O)cc4)[nH]3)oc12 [Example 17, 4-{2-[5-(4-Methyl-7-ethylbenzofuran-2-yl)pyrrolyl]}benzoic acid]",0.26
9,"CCc1ccc(Cl)c2cc(-c3ccc(-c4ccc(C(=O)O)cc4)[nH]3)oc12 [Example 20, 4-{2-[5-(4-Chloro-7-ethylbenzofuran-2-yl)pyrrolyl]}benzoic acid]",0.66
10,"CCc1cc(Cl)cc2cc(-c3ccc(-c4ccc(C(=O)O)cc4)[nH]3)oc12 [Example 23, 4-{2-[5-(5-Chloro-7-ethylbenzofuran-2-yl)pyrrolyl]}benzoic acid]",0.40
11,"CCc1cc(F)cc2cc(-c3ccc(-c4ccc(C(=O)O)cc4)[nH]3)oc12 [Example 25, 4-{2-[5-(5-Fluoro-7-ethylbenzofuran-2-yl)pyrrolyl]}benzoic acid]",0.65
12,"O=C(O)c1ccc(-c2ccc(-c3cc4c(F)ccc(F)c4o3)[nH]2)cc1 [Example 27, 4-{2-[5-(4,7-Difluorobenzofuran-2-yl)pyrrolyl]}benzoic acid]",0.63

# Biological target: T2, RAR-β (Homo sapiens, UniProt P10826)
# T2 construct: expressed in transfected cells; host or cells: COS-1 (African green monkey kidney cells), transient lipofection
# T2 sequence (P10826 1-455): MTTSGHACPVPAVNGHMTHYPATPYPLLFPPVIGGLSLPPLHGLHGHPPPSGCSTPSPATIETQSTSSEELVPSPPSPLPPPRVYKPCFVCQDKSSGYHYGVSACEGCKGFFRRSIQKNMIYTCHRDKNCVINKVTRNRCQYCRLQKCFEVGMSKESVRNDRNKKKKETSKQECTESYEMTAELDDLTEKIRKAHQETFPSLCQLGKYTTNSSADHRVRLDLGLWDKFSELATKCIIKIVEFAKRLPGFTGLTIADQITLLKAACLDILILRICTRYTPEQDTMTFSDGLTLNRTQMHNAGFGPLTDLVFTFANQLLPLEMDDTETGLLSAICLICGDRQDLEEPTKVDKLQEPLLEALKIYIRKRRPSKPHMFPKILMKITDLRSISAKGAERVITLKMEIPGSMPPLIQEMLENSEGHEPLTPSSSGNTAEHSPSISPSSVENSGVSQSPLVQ
# Experiment: as above
# Assay type: cell-based
# Conditions: relative to ED30 of all-trans retinoic acid = 1, ED30 = concentration giving 30% of activity induced by 1 μM all-trans retinoic acid
# From the text: as §1, §2, §3
row,Structure (SMILES),Transcription accelerating activity Relative ED30 RAR-β
1,"COc1ccc2ccc(-c3ccc(-c4ccc(C(=O)O)cc4)[nH]3)cc2c1C [Example 4, 4-{2-[5-(7-Methoxy-8-methylnaphthalen-2-yl)pyrrolyl]}benzoic acid]",— (—; >4000)
2,"Cc1cccc2ccc(-c3ccc(-c4ccc(C(=O)O)cc4)[nH]3)cc12 [Example 6, 4-{2-[5-(8-Methylnaphthalen-2-yl)pyrrolyl]}benzoic acid]",110
3,"CCc1cccc2ccc(-c3ccc(-c4ccc(C(=O)O)cc4)[nH]3)cc12 [Example 7, 4-{2-[5-(8-Ethylnaphthalen-2-yl)pyrrolyl]}benzoic acid]",36
4,"Cc1ccc(C)c2oc(-c3ccc(-c4ccc(C(=O)O)cc4)[nH]3)cc12 [Example 13, 4-{2-[5-(4,7-Dimethylbenzofuran-2-yl)pyrrolyl]}benzoic acid]",13
5,"O=C(O)c1ccc(-c2ccc(-c3cc4c(Cl)ccc(Cl)c4o3)[nH]2)cc1 [Example 14, 4-{2-[5-(4,7-Dichlorobenzofuran-2-yl)pyrrolyl]}benzoic acid]",160
6,"O=C(O)c1ccc(-c2ccc(-c3cc4cccc(Cl)c4o3)[nH]2)cc1 [Example 15, 4-{2-[5-(7-Chlorobenzofuran-2-yl)pyrrolyl]}benzoic acid]",940
7,"CCCc1cccc2cc(-c3ccc(-c4ccc(C(=O)O)cc4)[nH]3)oc12 [Example 16, 4-{2-[5-(7-n-Propylbenzofuran-2-yl)pyrrolyl]}benzoic acid]",74
8,"CCc1ccc(C)c2cc(-c3ccc(-c4ccc(C(=O)O)cc4)[nH]3)oc12 [Example 17, 4-{2-[5-(4-Methyl-7-ethylbenzofuran-2-yl)pyrrolyl]}benzoic acid]",24
9,"CCc1ccc(Cl)c2cc(-c3ccc(-c4ccc(C(=O)O)cc4)[nH]3)oc12 [Example 20, 4-{2-[5-(4-Chloro-7-ethylbenzofuran-2-yl)pyrrolyl]}benzoic acid]",59
10,"CCc1cc(Cl)cc2cc(-c3ccc(-c4ccc(C(=O)O)cc4)[nH]3)oc12 [Example 23, 4-{2-[5-(5-Chloro-7-ethylbenzofuran-2-yl)pyrrolyl]}benzoic acid]",67
11,"CCc1cc(F)cc2cc(-c3ccc(-c4ccc(C(=O)O)cc4)[nH]3)oc12 [Example 25, 4-{2-[5-(5-Fluoro-7-ethylbenzofuran-2-yl)pyrrolyl]}benzoic acid]",62
12,"O=C(O)c1ccc(-c2ccc(-c3cc4c(F)ccc(F)c4o3)[nH]2)cc1 [Example 27, 4-{2-[5-(4,7-Difluorobenzofuran-2-yl)pyrrolyl]}benzoic acid]",170

# Biological target: T3, RAR-γ (Homo sapiens, UniProt P13631)
# T3 construct: expressed in transfected cells; host or cells: COS-1 (African green monkey kidney cells), transient lipofection
# T3 sequence (P13631 1-454): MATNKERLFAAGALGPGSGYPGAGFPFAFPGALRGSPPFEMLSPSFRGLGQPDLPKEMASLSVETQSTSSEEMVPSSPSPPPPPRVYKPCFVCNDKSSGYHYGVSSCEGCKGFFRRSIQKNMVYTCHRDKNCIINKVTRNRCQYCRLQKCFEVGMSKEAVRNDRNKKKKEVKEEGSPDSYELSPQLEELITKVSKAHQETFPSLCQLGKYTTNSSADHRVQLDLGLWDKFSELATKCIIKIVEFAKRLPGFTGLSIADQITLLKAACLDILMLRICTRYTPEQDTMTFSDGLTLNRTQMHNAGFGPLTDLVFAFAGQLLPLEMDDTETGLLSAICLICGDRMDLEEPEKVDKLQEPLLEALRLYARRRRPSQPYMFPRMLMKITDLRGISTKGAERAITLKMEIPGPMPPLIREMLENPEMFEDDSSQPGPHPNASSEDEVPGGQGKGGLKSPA
# Experiment: as above
# Assay type: cell-based
# Conditions: relative to ED30 of all-trans retinoic acid = 1, ED30 = concentration giving 30% of activity induced by 1 μM all-trans retinoic acid
# From the text: as §1, §2, §3
row,Structure (SMILES),Transcription accelerating activity Relative ED30 RAR-γ
1,"COc1ccc2ccc(-c3ccc(-c4ccc(C(=O)O)cc4)[nH]3)cc2c1C [Example 4, 4-{2-[5-(7-Methoxy-8-methylnaphthalen-2-yl)pyrrolyl]}benzoic acid]",— (—; >4000)
2,"Cc1cccc2ccc(-c3ccc(-c4ccc(C(=O)O)cc4)[nH]3)cc12 [Example 6, 4-{2-[5-(8-Methylnaphthalen-2-yl)pyrrolyl]}benzoic acid]",240
3,"CCc1cccc2ccc(-c3ccc(-c4ccc(C(=O)O)cc4)[nH]3)cc12 [Example 7, 4-{2-[5-(8-Ethylnaphthalen-2-yl)pyrrolyl]}benzoic acid]",190
4,"Cc1ccc(C)c2oc(-c3ccc(-c4ccc(C(=O)O)cc4)[nH]3)cc12 [Example 13, 4-{2-[5-(4,7-Dimethylbenzofuran-2-yl)pyrrolyl]}benzoic acid]",48
5,"O=C(O)c1ccc(-c2ccc(-c3cc4c(Cl)ccc(Cl)c4o3)[nH]2)cc1 [Example 14, 4-{2-[5-(4,7-Dichlorobenzofuran-2-yl)pyrrolyl]}benzoic acid]",1400
6,"O=C(O)c1ccc(-c2ccc(-c3cc4cccc(Cl)c4o3)[nH]2)cc1 [Example 15, 4-{2-[5-(7-Chlorobenzofuran-2-yl)pyrrolyl]}benzoic acid]",2100
7,"CCCc1cccc2cc(-c3ccc(-c4ccc(C(=O)O)cc4)[nH]3)oc12 [Example 16, 4-{2-[5-(7-n-Propylbenzofuran-2-yl)pyrrolyl]}benzoic acid]",410
8,"CCc1ccc(C)c2cc(-c3ccc(-c4ccc(C(=O)O)cc4)[nH]3)oc12 [Example 17, 4-{2-[5-(4-Methyl-7-ethylbenzofuran-2-yl)pyrrolyl]}benzoic acid]",120
9,"CCc1ccc(Cl)c2cc(-c3ccc(-c4ccc(C(=O)O)cc4)[nH]3)oc12 [Example 20, 4-{2-[5-(4-Chloro-7-ethylbenzofuran-2-yl)pyrrolyl]}benzoic acid]",300
10,"CCc1cc(Cl)cc2cc(-c3ccc(-c4ccc(C(=O)O)cc4)[nH]3)oc12 [Example 23, 4-{2-[5-(5-Chloro-7-ethylbenzofuran-2-yl)pyrrolyl]}benzoic acid]",330
11,"CCc1cc(F)cc2cc(-c3ccc(-c4ccc(C(=O)O)cc4)[nH]3)oc12 [Example 25, 4-{2-[5-(5-Fluoro-7-ethylbenzofuran-2-yl)pyrrolyl]}benzoic acid]",63
12,"O=C(O)c1ccc(-c2ccc(-c3cc4c(F)ccc(F)c4o3)[nH]2)cc1 [Example 27, 4-{2-[5-(4,7-Difluorobenzofuran-2-yl)pyrrolyl]}benzoic acid]",1000
